Source: patent US20140047570A1, “ANIMAL MODEL OF HUMAN CANCER AND METHODS OF USE” (H. LEE MOFFITT CANCER CENTER AND RESEARCH INSTITUTE, INC., priority 2011, published 2014)

Test system: liver tumor of human pancreatic cancer
Assay: Diffusion MRI analysis of tumor response to drug treatment in vivo (liver xenograft)
Conditions: human pancreatic cancer tumor implanted in mouse liver; intraperitoneally 1 mg/kg/d; before vs 24 hours after initiation of treatment; FIG. 4C
Excerpt: FIGS. 4A-D show MRI analysis to assess tumor response to drug treatment in vivo. To evaluate tumor response to treatment in vivo in addition to US imaging technologies such as MRI that utilizes anatomical MRI, diffusion MRI, spectroscopy and Dynamic Contrast Enhanced (DCE) MRI can be used. Of these, diffusion, spectroscopy and DCE show great promise in determining early response to drug treatment, even before changes in tumor volume are observed. Anatomical and diffusion MRI techniques were used on the same liver tumor of human pancreatic cancer before (FIG. 4A) and 24 hours after (FIG. 4B) the initiation of gemcitabine (intraperitoneally 1 mg/kg/d) treatment. […] Laparoscopy or laparotomy can be used to assess tumor growth and to harvest tumor cells in liver (FIG. 4D).

Nc1ccn([C@@H]2O[C@H](CO)[C@@H](O)C2(F)F)c(=O)n1 [gemcitabine]
tumor water diffusion by diffusion MRI (early response to drug treatment): right shift in tumor water diffusion
